Some test systems named below: NCI-H226 lung; ACHN renal; EKVX NSCLC; NCI-H522 lung; KM12 colon; SW-620 colon; MCF7 breast; A549 NSCLC; U251 CNS; NCI-H23 lung.
What all share (test): NCI anticancer screen, dose series, 48 h

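In this assay, cells in 96-well plates receive the compound at five concentrations for 48 hours. Endpoints are linearly interpolated between the surrounding concentrations. The concentration for 50% growth inhibition is given as GI50. The concentration for full growth arrest is given as TGI.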

On to `COc1ccc(C2SC(C)C(=O)N2NC(=O)C(O)c2ccccc2)cc1` (centres undefined), for which the GI50 in the experiment with NCI-H226 lung, in the experiment on ACHN renal, in the experiment with EKVX NSCLC, with NCI-H522 lung, in the experiment with KM12 colon and in the experiment with SW-620 colon was more than 100 µM in each case. Also, the GI50 in the experiment on MCF7 breast, in the experiment on A549 NSCLC and with U251 CNS was more than 100 µM throughout. The TGI in the experiment with NCI-H226 lung, in the experiment on ACHN renal, with EKVX NSCLC, with NCI-H522 lung, in the experiment on KM12 colon and with SW-620 colon was more than 100 µM throughout. The TGI in the experiment with MCF7 breast, in the experiment with A549 NSCLC and in the experiment on U251 CNS was more than 100 µM in each case.

For the compound `CCOCC[P+](c1ccccc1)(c1ccccc1)c1ccccc1`, the GI50 was 17.8 µM in the experiment with NCI-H226 lung; 35.8 µM with ACHN renal; 11.9 µM with NCI-H522 lung; 11.2 µM in the experiment with KM12 colon; 25.2 µM in the experiment with SW-620 colon; 17.5 µM in the experiment with NCI-H23 lung. In addition, the GI50 with MCF7 breast is 13.7 µM; in the experiment with A549 NSCLC it was 16.4 µM; with U251 CNS it was 18.1 µM. Also, the TGI in the experiment on NCI-H226 lung was more than 100 µM; in the experiment with ACHN renal, more than 100 µM; in the experiment with NCI-H522 lung it was 50.9 µM; in the experiment with KM12 colon, more than 100 µM; with SW-620 colon, more than 100 µM; in the experiment with NCI-H23 lung, 80.9 µM. Besides, the TGI in the experiment on MCF7 breast was 66.4 µM; with A549 NSCLC it was 87.8 µM; with U251 CNS, 92.5 µM.

On to `Cc1ccc(S(=O)(=O)N2C/C(=C\c3cc(F)cc(F)c3)C(=O)/C(=C/c3cc(F)cc(F)c3)C2)cc1`, for which the GI50 is 2.42 µM in the experiment on NCI-H226 lung; 0.232 µM with ACHN renal; 0.26 µM in the experiment on NCI-H522 lung; 0.268 µM with KM12 colon; 0.0582 µM in the experiment with SW-620 colon; 1.14 µM in the experiment on NCI-H23 lung. Further, the values for the GI50 with MCF7 breast, in the experiment with A549 NSCLC and in the experiment with U251 CNS were 0.177 µM, 2.42 µM and 0.178 µM, respectively. Further, the TGI with ACHN renal was 0.573 µM; in the experiment with NCI-H522 lung, 0.721 µM; with KM12 colon, 0.704 µM; with SW-620 colon, 0.283 µM; in the experiment with NCI-H23 lung, 4.14 µM; in the experiment with MCF7 breast it was 1.38 µM. The TGI in the experiment with A549 NSCLC came to 10.1 µM; with U251 CNS, 0.452 µM.

Consider `NNc1nc(-c2ccccn2)nc2sc3c(c12)CCCCCC3`, for which the GI50 is 10.3 µM in the experiment on NCI-H226 lung; 4.87 µM in the experiment with ACHN renal; 12.1 µM with NCI-H522 lung; 6.46 µM with KM12 colon; 4.53 µM in the experiment with SW-620 colon; 9 µM with NCI-H23 lung. Moreover, the GI50 with MCF7 breast was 3.84 µM; with A549 NSCLC, 3.18 µM; in the experiment with U251 CNS, 4.5 µM. Further, the TGI in the experiment with NCI-H226 lung was 89.1 µM; with ACHN renal, 63.9 µM; with NCI-H522 lung, 68.3 µM; with KM12 colon, 99 µM; in the experiment with SW-620 colon, more than 100 µM; in the experiment with NCI-H23 lung, more than 100 µM. Besides, the TGI was more than 100 µM in the experiment on MCF7 breast, more than 100 µM in the experiment on A549 NSCLC and 49.6 µM with U251 CNS.

On to `C[C@H]1[C@H](C)CC[C@]2(C(=O)O)CC[C@]3(C)C(=CC[C@@H]4[C@@]5(C)CC[C@H](OC(=O)/C=C\c6ccc(O)cc6)C(C)(C)[C@@H]5CC[C@]43C)[C@H]12`, for which the GI50 in the experiment with NCI-H226 lung was 4.55 µM; in the experiment on ACHN renal, 2.89 µM; in the experiment on EKVX NSCLC, 3.11 µM; in the experiment on NCI-H522 lung it was 5.58 µM; in the experiment with SW-620 colon, 17.6 µM; in the experiment on NCI-H23 lung, 3.48 µM. For the same compound, the results for the GI50 in the experiment on MCF7 breast, with A549 NSCLC and with U251 CNS were 1.36 µM, 2.02 µM and 2 µM, respectively. Besides, the TGI in the experiment on NCI-H226 lung was 26.3 µM; in the experiment on ACHN renal it was 12.1 µM; with EKVX NSCLC it was 13.7 µM; in the experiment on NCI-H522 lung, more than 100 µM; in the experiment on SW-620 colon it was 33.7 µM; with NCI-H23 lung, 15.9 µM. The TGI in the experiment with MCF7 breast was 3.63 µM; with A549 NSCLC, more than 100 µM; with U251 CNS it was 9.41 µM.

For `O=C(O)C#Cc1ccc([N+](=O)[O-])cc1`, the TGI in the experiment on NCI-H226 lung, with ACHN renal, with EKVX NSCLC, in the experiment on KM12 colon, in the experiment on SW-620 colon and in the experiment on NCI-H23 lung was more than 100 µM in each case. Besides, the TGI with MCF7 breast, in the experiment with A549 NSCLC and in the experiment with U251 CNS was more than 100 µM in each case.

On to `Cn1cc(C2=C(c3cccc(NCC(O)CO)c3)C(=O)NC2=O)c2cc(Cl)ccc21` (centres undefined), for which the GI50 was 3.34 µM with NCI-H226 lung; 3.53 µM in the experiment with ACHN renal; 2.45 µM with NCI-H522 lung; 2.45 µM with KM12 colon; 4.26 µM in the experiment on SW-620 colon; 4.64 µM in the experiment on NCI-H23 lung. Also, the results for the GI50 in the experiment with MCF7 breast, with A549 NSCLC and in the experiment on U251 CNS were 0.356 µM, 4.74 µM and 2.33 µM, respectively. The TGI in the experiment on NCI-H226 lung is 11.9 µM; with ACHN renal, more than 19.6 µM; in the experiment on NCI-H522 lung it was 11.4 µM; in the experiment on KM12 colon, 9.5 µM; in the experiment on SW-620 colon, 15.7 µM; with NCI-H23 lung, 13.3 µM. Further, the figures for the TGI in the experiment on MCF7 breast, in the experiment with A549 NSCLC and in the experiment on U251 CNS were 12.6 µM, 17.6 µM and 13.7 µM, respectively.

Take `COc1ccc(-c2oncc2-c2cc(OC)c3c(c2)OCO3)cc1`: the GI50 with NCI-H226 lung is 9.53 µM; in the experiment with ACHN renal it was 4.81 µM; in the experiment with NCI-H522 lung it was 1.44 µM; in the experiment on KM12 colon, 2.66 µM; in the experiment with SW-620 colon, 1.18 µM; in the experiment with NCI-H23 lung it was 4.94 µM. Also, the GI50 in the experiment on MCF7 breast was 1.59 µM; with A549 NSCLC it was 3.58 µM; in the experiment on U251 CNS, 3.8 µM. Further, the TGI in the experiment with NCI-H226 lung was more than 93.8 µM; with ACHN renal it was more than 100 µM; with NCI-H522 lung, 5.77 µM; with KM12 colon, more than 82.2 µM; in the experiment with SW-620 colon, more than 100 µM; with NCI-H23 lung it was more than 100 µM. Besides, the TGI with MCF7 breast was more than 100 µM; with A549 NSCLC it was more than 100 µM; with U251 CNS it was more than 87.3 µM.
